Assays:
Experiment in all cases: relative viability (nuclei count vs DMSO), 5 days (fraction); higher = more cells survive
Ricolinostat + Lapatinib = compound: O=C(CCCCCCNC(=O)c1cnc(N(c2ccccc2)c2ccccc2)nc1)NO [Ricolinostat] + CS(=O)(=O)CCNCc1ccc(-c2ccc3ncnc(Nc4ccc(OCc5cccc(F)c5)c(Cl)c4)c3c2)o1 [Lapatinib] (partner 2 µM)
In short: (§1)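 Five library-drug doses in √10 steps were combined with a fixed anchor-drug dose, or a single drug was given alone, by pin tool to lung cancer cell lines in 1536-well plates the day after seeding. Nuclei were stained and counted after 5 days. Relative viability is the nuclei count in treated wells over that in vehicle wells, taken as the median of duplicate plates.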

TGX 221 + AZD7762 = compound: CC1=CN2C(=O)C=C(N=C2C(=C1)C(C)NC3=CC=CC=C3)N4CCOCC4 [TGX 221] + NC(=O)Nc1cc(-c2cccc(F)c2)sc1C(=O)N[C@H]1CCCNC1 [AZD7762] (partner 0.2 µM)
In short: as §1

[1] = compound: O=C(CCCCCCNC(=O)c1cnc(N(c2ccccc2)c2ccccc2)nc1)NO [Ricolinostat] + C[C@@H](Oc1cc(-c2cnn(C3CCNCC3)c2)cnc1N)c1c(Cl)ccc(F)c1Cl [Crizotinib] (partner 1 µM)
In short: as §1

TGX 221 + Decitabine = compound: CC1=CN2C(=O)C=C(N=C2C(=C1)C(C)NC3=CC=CC=C3)N4CCOCC4 [TGX 221] + Nc1ncn([C@H]2C[C@H](O)[C@@H](CO)O2)c(=O)n1 [Decitabine] (partner 2 µM)
In short: as §1

## NCI-H1792
Ricolinostat + Lapatinib; first compound 0.08 µM
  relative viability: 0.719
Ricolinostat + Lapatinib; first compound 0.253 µM
  relative viability: 0.918
Ricolinostat + Lapatinib; first compound 0.8 µM
  relative viability: 0.863
Ricolinostat + Lapatinib; first compound 2.53 µM
  relative viability: 1.01
TGX 221 + AZD7762; first compound 0.08 µM
  relative viability: 0.625
TGX 221 + AZD7762; first compound 0.253 µM
  relative viability: 0.625
TGX 221 + AZD7762; first compound 0.8 µM
  relative viability: 0.602
TGX 221 + AZD7762; first compound 2.53 µM
  relative viability: 0.556
TGX 221 + AZD7762; first compound 8 µM
  relative viability: 0.418
[1]; first compound 0.08 µM
  relative viability: 0.849
[1]; first compound 0.253 µM
  relative viability: 0.988
[1]; first compound 0.8 µM
  relative viability: 0.913
[1]; first compound 2.53 µM
  relative viability: 1
TGX 221 + Decitabine; first compound 0.08 µM
  relative viability: 0.522
TGX 221 + Decitabine; first compound 0.253 µM
  relative viability: 0.479
TGX 221 + Decitabine; first compound 0.8 µM
  relative viability: 0.549
TGX 221 + Decitabine; first compound 2.53 µM
  relative viability: 0.454
TGX 221 + Decitabine; first compound 8 µM
  relative viability: 0.362

Reference: the supplement of paper PMC10307832
